Measurements as given in patent US20030066102A1, “Plant gene for p-hydroxyphenylpyruvate dioxygenase” (priority 1996, published 2003).

What was measured:
[1] = molecular target: T1, Plant p-Hydroxyphenylpyruvate Dioxygenase (Arabidopsis enzyme overexpressed in E. coli) (Arabidopsis thaliana, UniProt P93836); assay: continuous spectrophotometric enol borate-tautomerase assay with overexpressed protein; type: biochemical
T1 construct: The first 11 cycles identified […]; initiator Met (ATG start codon put in front of Ser30 by oligos CAM32/CAM33) (N, cleaved yes); made in house; host or cells: E. coli BL21(DE3) carrying pE24CP1 (pET24c(+) backbone), IPTG-induced; cell extract
T1 sequence (P93836 30-445): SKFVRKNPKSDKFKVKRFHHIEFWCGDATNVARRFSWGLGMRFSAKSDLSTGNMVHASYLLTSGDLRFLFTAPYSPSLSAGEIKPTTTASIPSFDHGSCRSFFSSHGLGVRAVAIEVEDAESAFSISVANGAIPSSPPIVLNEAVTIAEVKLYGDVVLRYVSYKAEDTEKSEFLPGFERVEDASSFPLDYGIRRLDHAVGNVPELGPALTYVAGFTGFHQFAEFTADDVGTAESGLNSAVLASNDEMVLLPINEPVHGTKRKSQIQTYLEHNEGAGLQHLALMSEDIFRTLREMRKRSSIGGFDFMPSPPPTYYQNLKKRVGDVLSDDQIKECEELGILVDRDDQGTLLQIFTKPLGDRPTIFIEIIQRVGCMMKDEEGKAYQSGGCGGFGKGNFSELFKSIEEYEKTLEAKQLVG
Procedure: The overexpressed protein was also assayed spectrophotometrically at ambient temperature using the enol borate-tautomerase assay (Lin, E. C. C. et al., (1958) J. Biol. Chem. 233:668-673). The assay buffer contained 0.4 M borate (adjusted to pH 7.2 with 0.2 M sodium borate), 4 mM ascorbate, 2.5 mM EDTA, 40 μM p-hydroxyphenylpyruvate, and 0.5 units of tautomerase (Sigma T-6004) per 10 mL buffer. The reaction mix was used when the tautomerization of the substrate was complete (when absorbance at 308 nm had stabilized). The assay was initiated by adding 40 μL of the cell extracts to 960 μL of the assay buffer, and the reaction was followed by measuring the decrease in absorbance at 308 nm.
(§1) The enzymatic activity of the overexpressed protein is inhibited by two herbicides known to inhibit plant p-hydroxyphenylpyruvate dioxygenase: Sulcotrione (2-(2-chloro-4-methanesulfonylbenzoyl)-1,3-cyclohexanedione); and Isoxaflutole (5-cyclopropylisoxazol-4-yl 2-mesyl-4-trifluoromethylphenyl ketone). These two compounds were tested against the overexpressed protein using both the ^14CO2 and the continuous spectrophotometric enol borate-tautomerase assays. Both compounds were added to the assay buffers in 10 μL of acetone or dimethyl sulfoxide. The I50 values (concentration inhibiting the enzyme 50%) were calculated based on the percent inhibition observed over several concentrations of the inhibitor.

[2] = molecular target: T1, Plant p-Hydroxyphenylpyruvate Dioxygenase (Arabidopsis enzyme overexpressed in E. coli); assay: 14CO2 release assay from 14C-p-hydroxyphenylpyruvate with overexpressed protein; type: biochemical
Procedure: Cell cultures with different plasmid constructs were extracted as described above and assayed by measuring the formation of ^14Co2 from [1-^14C]-p-hydroxyphenylpyruvate or ^14CO2 and ^14C-homogentisate from [U-^14C]-p-hydroxyphenylpyruvate (Lindblad, B., (1971) Clin. Chim. Acta 34:113-121; and Lindstedt, S. and Odelhog, B., (1987) Methods in Enzymology 142:143-148). The labeled substrate was prepared from [1-^14C]-L-tyrosine (55 mCi/mmol; American Radiolabeled Chemicals, Inc., St. Louis, Mo.) or [U-^14C]-L-tyrosine (498 mCi/mmol; DuPont NEN, Boston, Mass.). […]
The assay was performed in 14 mL culture tubes capped with serum stoppers through which a polypropylene well containing 200 μL of 1 N KOH was suspended. […] Six mL of Formula-989 scintillation fluid (Packard Insturments, Meriden, Conn.) was added to the vials and the ^14C radioactivity was determined by scintillation counting.
as §1, with “These two compounds were tested against the overexpressed protein using both the ^14CO2 and the continuous spectrophotometric enol borate-tautomerase assays. Both compounds were added to the assay buffers in 10 μL of acetone or dimethyl sulfoxide.” left out

[3] = storage stability of purified enzyme constructs, activity by tautomerase coupled spectrophotometric assay; type: physicochemical, Arabidopsis thaliana; settings: 1 mg/mL in 20 mM bis tris-propane buffer pH 7.2, 5 mM ascorbate, 1 mM reduced glutathione, 0.1 mM ferrous ammonium sulfate, stored at 4 °C
Description: Two different constructs for Arabidopsis thaliana p-hydroxyphenyl-pyruvate dioxygenase, one containing the full-length sequence, PDO-B as described in Example 5 and produced from plasmid pE24PDO-B, and one containing the truncated sequence lacking the putative chloroplast leader sequence, PDO-A as produced from plasmid pE24CP1, were both purified to the same extent using a Pharmacia phenyl Sepharose hydrophobic interaction column followed by gel filtration chromatography on Pharmacia Sephacryl 300. The two proteins were diluted to 1 mg/mL in 20 mM bis tris-propane buffer, pH 7.2 containing 5 mM ascorbate, 1 mM reduced glutathione and 0.1mM ferrous ammonium sulfate and stored in a refrigerator at 4 ° C. for up to 10 days. Aliquots were removed at various times and assayed for activity using the tautomerase coupled spectrophotometric assay. […] In addition, the activity of the full length enzyme could be restored by incubation with iron and reducing agent, reduced glutathione or ascorbate, or by dialysis against buffer containing iron and reducing agent. In contrast, the activity of the truncated enzyme could not be restored by incubation with or dialysis against buffer containing iron and reducing agent.

CS(=O)(=O)c1cc(C(F)(F)F)ccc1C(=O)c1cnoc1C1CC1 [isoxaflutole, 5-cyclopropylisoxazol-4-yl 2-mesyl-4-trifluoromethylphenyl ketone]
IC50 ([1]; concentration inhibiting the enzyme 50%, absorbance at 308 nm, read-out: I50 value derived from spectrophotometric assay): 1.04 µM
IC50 ([2]; concentration inhibiting the enzyme 50%, inhibitor added in 10 μL acetone or dimethyl sulfoxide, read-out: I50 value derived from 14CO2 assay): 0.409 µM

CS(=O)(=O)c1ccc(C(=O)C2C(=O)CCCC2=O)c(Cl)c1 [sulcotrione, 2-(2-chloro-4-methanesulfonylbenzoyl)-1,3-cyclohexanedione]
IC50 [1]: 0.044 µM
IC50 [2]: 0.043 µM

B1: PDO-B: full-length Arabidopsis thaliana p-hydroxyphenylpyruvate dioxygenase produced from plasmid pE24PDO-B (protein, UniProt P93836 1-445, looked up)
chain: MGHQNAAVSENQNHDDGAASSPGFKLVGFSKFVRKNPKSDKFKVKRFHHIEFWCGDATNVARRFSWGLGMRFSAKSDLSTGNMVHASYLLTSGDLRFLFTAPYSPSLSAGEIKPTTTASIPSFDHGSCRSFFSSHGLGVRAVAIEVEDAESAFSISVANGAIPSSPPIVLNEAVTIAEVKLYGDVVLRYVSYKAEDTEKSEFLPGFERVEDASSFPLDYGIRRLDHAVGNVPELGPALTYVAGFTGFHQFAEFTADDVGTAESGLNSAVLASNDEMVLLPINEPVHGTKRKSQIQTYLEHNEGAGLQHLALMSEDIFRTLREMRKRSSIGGFDFMPSPPPTYYQNLKKRVGDVLSDDQIKECEELGILVDRDDQGTLLQIFTKPLGDRPTIFIEIIQRVGCMMKDEEGKAYQSGGCGGFGKGNFSELFKSIEEYEKTLEAKQLVG
modifications: full-length
half-life for the activity [3]: 96 h
